According to ChEMBL document CHEMBL4507257, “Data for DCP probe ABT-100” (2021):

How the values were obtained:
[1] = target: STE20/SPS1-related proline-alanine-rich protein kinase (Homo sapiens) (UniProt Q9UEW8); conditions: Compound concentration 1000.0 nM
[2] = target: Serine/threonine-protein kinase VRK2 (Homo sapiens) (UniProt Q86Y07); conditions: Compound concentration 1000.0 nM
[3] = test system: Epidermal growth factor receptor (Homo sapiens), P00533 [UNDEFINED MUTATION]; conditions: Compound concentration 1000.0 nM
[4] = target: Mitogen-activated protein kinase 11 (Homo sapiens) (UniProt Q15759); conditions: Compound concentration 1000.0 nM
[5] = target: Fibroblast growth factor receptor 4 (Homo sapiens) (UniProt P22455); conditions: Compound concentration 1000.0 nM
[6] = target: Phosphatidylinositol 4-phosphate 5-kinase type-1 alpha (Homo sapiens) (UniProt Q99755); conditions: Compound concentration 1000.0 nM
[7] = target: Activin receptor type-1B (Homo sapiens) (UniProt P36896); conditions: Compound concentration 1000.0 nM
[8] = target: Mitogen-activated protein kinase kinase kinase 1 (Homo sapiens) (UniProt Q13233); conditions: Compound concentration 1000.0 nM
[9] = target: Mitogen-activated protein kinase 14 (Homo sapiens) (UniProt Q16539); conditions: Compound concentration 1000.0 nM
[10] = test system: Phosphatidylinositol 4,5-bisphosphate 3-kinase catalytic subunit alpha isoform (Homo sapiens), P42336 [H1047L]; conditions: Compound concentration 1000.0 nM
[11] = target: Insulin receptor (Homo sapiens) (UniProt P06213); conditions: Compound concentration 1000.0 nM
[12] = test system: Receptor-type tyrosine-protein kinase FLT3 (Homo sapiens), P36888 [UNDEFINED MUTATION]; conditions: Compound concentration 1000.0 nM
[13] = target: Mitotic checkpoint serine/threonine-protein kinase BUB1 (Homo sapiens) (UniProt O43683); conditions: Compound concentration 1000.0 nM
[14] = target: Platelet-derived growth factor receptor beta (Homo sapiens) (UniProt P09619); conditions: Compound concentration 1000.0 nM
[15] = target: Serine/threonine-protein kinase 32C (Homo sapiens) (UniProt Q86UX6); conditions: Compound concentration 1000.0 nM
[16] = target: Activated CDC42 kinase 1 (Homo sapiens) (UniProt Q07912); conditions: Compound concentration 1000.0 nM
[17] = target: Mitogen-activated protein kinase kinase kinase 13 (Homo sapiens) (UniProt O43283); conditions: Compound concentration 1000.0 nM
[18] = target: Kappa-type opioid receptor (Homo sapiens) (UniProt P41145); conditions: Compound concentration 10.0 uM
[19] = target: Serine/threonine-protein kinase PAK 4 (Homo sapiens) (UniProt O96013); conditions: Compound concentration 1000.0 nM
[20] = target: Phosphatidylinositol 5-phosphate 4-kinase type-2 beta (Homo sapiens) (UniProt P78356); conditions: Compound concentration 1000.0 nM
Histamine H1 receptor = Histamine H1 receptor (Homo sapiens, UniProt P35367); conditions: Compound concentration 10.0 uM
[21] = target: 5-hydroxytryptamine receptor 5A (Homo sapiens) (UniProt P47898); conditions: Compound concentration 10.0 uM
[22] = target: Serine/threonine-protein kinase PknB (Mycobacterium tuberculosis) (UniProt P9WI81); conditions: Compound concentration 1000.0 nM
[23] = target: Macrophage-stimulating protein receptor (Homo sapiens) (UniProt Q04912); conditions: Compound concentration 1000.0 nM
[24] = target: Calcium/calmodulin-dependent protein kinase type 1G (Homo sapiens) (UniProt Q96NX5); conditions: Compound concentration 1000.0 nM
[25] = target: Tyrosine-protein kinase Lyn (Homo sapiens) (UniProt P07948); conditions: Compound concentration 1000.0 nM
[26] = target: Ribosomal protein S6 kinase alpha-3 (Homo sapiens) (UniProt P51812); conditions: Compound concentration 1000.0 nM
[27] = target: Vascular endothelial growth factor receptor 1 (Homo sapiens) (UniProt P17948); conditions: Compound concentration 1000.0 nM
[28] = target: Mast/stem cell growth factor receptor Kit (Homo sapiens) (UniProt P10721); conditions: Compound concentration 1000.0 nM
[29] = target: Protein kinase C epsilon type (Homo sapiens) (UniProt Q02156); conditions: Compound concentration 1000.0 nM
[30] = target: T1, Muscarinic acetylcholine receptor M1 (Homo sapiens) (UniProt P11229); conditions: Compound concentration 10.0 uM
T1 sequence (whole entry): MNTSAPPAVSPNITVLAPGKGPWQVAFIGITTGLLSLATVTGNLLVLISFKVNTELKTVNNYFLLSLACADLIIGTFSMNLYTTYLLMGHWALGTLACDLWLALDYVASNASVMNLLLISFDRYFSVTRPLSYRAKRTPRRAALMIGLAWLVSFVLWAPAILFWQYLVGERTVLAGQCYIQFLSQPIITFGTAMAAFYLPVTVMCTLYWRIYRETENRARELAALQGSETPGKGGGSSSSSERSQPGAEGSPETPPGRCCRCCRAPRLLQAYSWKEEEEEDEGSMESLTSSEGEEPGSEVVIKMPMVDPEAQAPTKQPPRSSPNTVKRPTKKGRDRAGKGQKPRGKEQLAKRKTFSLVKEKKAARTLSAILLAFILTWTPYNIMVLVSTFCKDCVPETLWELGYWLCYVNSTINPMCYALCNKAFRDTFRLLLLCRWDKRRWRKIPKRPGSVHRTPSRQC

[31] = test system: Receptor-type tyrosine-protein kinase FLT3 (Homo sapiens), P36888 [D835H]; conditions: Compound concentration 1000.0 nM
[32] = target: Ephrin type-A receptor 6 (Homo sapiens) (UniProt Q9UF33); conditions: Compound concentration 1000.0 nM
[33] = target: Mitogen-activated protein kinase kinase kinase 4 (Homo sapiens) (UniProt Q9Y6R4); conditions: Compound concentration 1000.0 nM
[34] = target: Tyrosine-protein kinase Blk (Homo sapiens) (UniProt P51451); conditions: Compound concentration 1000.0 nM
[35] = target: Mitogen-activated protein kinase kinase kinase kinase 4 (Homo sapiens) (UniProt O95819); conditions: Compound concentration 1000.0 nM
[36] = target: Serine/threonine-protein kinase 36 (Homo sapiens) (UniProt Q9NRP7); conditions: Compound concentration 1000.0 nM
[37] = target: Serine/threonine-protein kinase PLK3 (Homo sapiens) (UniProt Q9H4B4); conditions: Compound concentration 1000.0 nM
[38] = target: Serine/threonine-protein kinase 17B (Homo sapiens) (UniProt O94768); conditions: Compound concentration 1000.0 nM

Chain of Insulin receptor (Homo sapiens) (P06213 28-758 limits assumed): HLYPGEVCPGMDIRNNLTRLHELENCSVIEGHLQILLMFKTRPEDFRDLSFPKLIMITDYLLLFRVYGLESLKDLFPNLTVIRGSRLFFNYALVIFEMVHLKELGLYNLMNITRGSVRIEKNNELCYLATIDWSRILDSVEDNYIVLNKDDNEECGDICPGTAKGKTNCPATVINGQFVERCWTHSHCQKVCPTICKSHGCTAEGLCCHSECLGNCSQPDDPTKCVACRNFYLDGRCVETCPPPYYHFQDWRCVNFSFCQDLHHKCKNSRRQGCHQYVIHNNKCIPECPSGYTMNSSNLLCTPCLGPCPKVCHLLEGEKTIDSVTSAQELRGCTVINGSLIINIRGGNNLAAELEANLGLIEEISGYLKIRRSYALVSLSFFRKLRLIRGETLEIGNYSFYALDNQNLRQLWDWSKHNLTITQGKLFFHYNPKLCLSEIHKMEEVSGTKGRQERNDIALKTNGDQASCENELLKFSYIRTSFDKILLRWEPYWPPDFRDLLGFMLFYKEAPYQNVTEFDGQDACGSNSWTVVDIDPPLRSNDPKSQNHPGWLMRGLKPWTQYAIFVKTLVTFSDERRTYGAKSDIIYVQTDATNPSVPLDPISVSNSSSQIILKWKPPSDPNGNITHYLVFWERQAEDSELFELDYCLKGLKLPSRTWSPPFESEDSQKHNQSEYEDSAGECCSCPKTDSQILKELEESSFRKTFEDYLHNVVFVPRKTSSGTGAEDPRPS
Chain of Insulin receptor (Homo sapiens) (P06213 763-1382 limits assumed): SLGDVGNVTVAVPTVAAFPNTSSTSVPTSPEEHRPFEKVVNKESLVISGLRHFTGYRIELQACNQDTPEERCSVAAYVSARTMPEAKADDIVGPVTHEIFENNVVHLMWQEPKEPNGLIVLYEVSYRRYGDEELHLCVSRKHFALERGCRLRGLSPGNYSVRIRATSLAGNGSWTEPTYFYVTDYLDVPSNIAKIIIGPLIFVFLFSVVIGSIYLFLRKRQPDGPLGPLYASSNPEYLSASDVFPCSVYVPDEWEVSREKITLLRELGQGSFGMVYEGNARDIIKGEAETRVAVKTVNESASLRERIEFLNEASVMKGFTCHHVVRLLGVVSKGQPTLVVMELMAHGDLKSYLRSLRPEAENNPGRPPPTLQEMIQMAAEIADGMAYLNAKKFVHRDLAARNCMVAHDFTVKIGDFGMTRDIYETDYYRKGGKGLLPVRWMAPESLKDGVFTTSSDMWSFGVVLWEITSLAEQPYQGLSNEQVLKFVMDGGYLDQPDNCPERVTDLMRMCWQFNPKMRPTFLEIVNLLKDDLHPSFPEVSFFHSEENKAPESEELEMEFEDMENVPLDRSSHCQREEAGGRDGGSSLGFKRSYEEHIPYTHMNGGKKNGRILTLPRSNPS
Chain of Mitogen-activated protein kinase kinase kinase 13 (Homo sapiens) (O43283 whole entry): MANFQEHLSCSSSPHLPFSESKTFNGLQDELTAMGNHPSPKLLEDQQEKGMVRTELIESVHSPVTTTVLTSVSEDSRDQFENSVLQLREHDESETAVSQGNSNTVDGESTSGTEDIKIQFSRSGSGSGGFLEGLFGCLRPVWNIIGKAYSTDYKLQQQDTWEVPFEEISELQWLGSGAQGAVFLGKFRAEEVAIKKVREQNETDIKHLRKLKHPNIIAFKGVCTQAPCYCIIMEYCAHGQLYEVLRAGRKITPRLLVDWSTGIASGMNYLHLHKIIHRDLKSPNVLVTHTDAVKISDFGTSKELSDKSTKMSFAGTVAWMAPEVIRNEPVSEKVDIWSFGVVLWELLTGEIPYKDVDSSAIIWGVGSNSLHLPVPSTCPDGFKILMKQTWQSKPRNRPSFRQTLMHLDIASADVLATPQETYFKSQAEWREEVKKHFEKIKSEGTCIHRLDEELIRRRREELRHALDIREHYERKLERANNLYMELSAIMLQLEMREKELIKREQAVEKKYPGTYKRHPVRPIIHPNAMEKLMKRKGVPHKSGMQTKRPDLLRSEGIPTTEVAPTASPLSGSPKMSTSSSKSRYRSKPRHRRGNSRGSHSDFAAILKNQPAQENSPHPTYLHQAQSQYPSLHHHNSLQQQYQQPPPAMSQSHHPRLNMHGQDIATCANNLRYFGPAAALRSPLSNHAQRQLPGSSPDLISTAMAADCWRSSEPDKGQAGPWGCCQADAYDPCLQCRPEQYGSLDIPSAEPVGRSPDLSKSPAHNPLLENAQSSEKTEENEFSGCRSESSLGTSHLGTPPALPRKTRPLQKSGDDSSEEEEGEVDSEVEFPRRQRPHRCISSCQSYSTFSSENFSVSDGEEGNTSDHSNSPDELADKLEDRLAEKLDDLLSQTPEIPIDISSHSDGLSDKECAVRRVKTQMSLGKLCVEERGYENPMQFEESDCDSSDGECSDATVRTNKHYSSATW
Chain of Kappa-type opioid receptor (Homo sapiens) (P41145 whole entry): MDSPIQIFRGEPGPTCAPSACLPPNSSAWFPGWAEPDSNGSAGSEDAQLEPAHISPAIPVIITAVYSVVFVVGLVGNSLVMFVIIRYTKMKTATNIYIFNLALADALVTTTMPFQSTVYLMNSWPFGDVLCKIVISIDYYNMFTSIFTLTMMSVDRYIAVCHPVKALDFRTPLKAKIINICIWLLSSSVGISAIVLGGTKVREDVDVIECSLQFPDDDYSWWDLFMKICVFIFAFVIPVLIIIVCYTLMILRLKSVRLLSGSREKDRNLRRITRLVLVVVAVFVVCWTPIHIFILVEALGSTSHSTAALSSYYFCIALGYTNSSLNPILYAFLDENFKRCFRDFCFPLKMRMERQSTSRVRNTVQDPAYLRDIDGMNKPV
Chain of Phosphatidylinositol 4,5-bisphosphate 3-kinase catalytic subunit alpha isoform (Homo sapiens), P42336 [H1047L] (P42336 whole entry H1047L, canonical isoform): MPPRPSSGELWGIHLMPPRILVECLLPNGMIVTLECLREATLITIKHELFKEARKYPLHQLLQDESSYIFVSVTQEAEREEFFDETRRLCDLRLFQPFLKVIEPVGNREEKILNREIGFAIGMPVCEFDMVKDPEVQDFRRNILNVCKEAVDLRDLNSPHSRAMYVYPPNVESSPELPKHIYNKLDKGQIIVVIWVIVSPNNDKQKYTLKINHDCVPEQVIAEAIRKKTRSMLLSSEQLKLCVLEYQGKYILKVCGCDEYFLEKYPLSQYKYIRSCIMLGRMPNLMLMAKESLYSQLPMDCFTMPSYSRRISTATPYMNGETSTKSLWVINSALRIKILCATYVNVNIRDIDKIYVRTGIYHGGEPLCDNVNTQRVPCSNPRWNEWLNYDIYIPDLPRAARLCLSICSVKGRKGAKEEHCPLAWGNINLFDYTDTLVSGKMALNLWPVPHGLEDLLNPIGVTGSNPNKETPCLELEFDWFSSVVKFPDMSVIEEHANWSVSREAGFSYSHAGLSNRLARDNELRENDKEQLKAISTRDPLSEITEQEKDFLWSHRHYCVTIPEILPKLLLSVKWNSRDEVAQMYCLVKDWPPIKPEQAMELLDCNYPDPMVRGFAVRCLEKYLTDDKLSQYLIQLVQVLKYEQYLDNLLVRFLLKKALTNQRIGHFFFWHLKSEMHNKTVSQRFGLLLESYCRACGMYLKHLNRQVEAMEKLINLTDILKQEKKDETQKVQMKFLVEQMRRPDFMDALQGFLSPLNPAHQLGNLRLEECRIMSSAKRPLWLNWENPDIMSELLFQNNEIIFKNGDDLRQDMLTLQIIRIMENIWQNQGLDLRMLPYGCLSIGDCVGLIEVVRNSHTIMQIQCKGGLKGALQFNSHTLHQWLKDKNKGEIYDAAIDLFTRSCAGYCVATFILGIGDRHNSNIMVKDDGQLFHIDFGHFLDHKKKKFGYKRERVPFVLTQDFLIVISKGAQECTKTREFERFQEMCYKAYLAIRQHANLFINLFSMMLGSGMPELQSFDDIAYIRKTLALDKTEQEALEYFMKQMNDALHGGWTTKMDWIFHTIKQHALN
Chain of Serine/threonine-protein kinase 32C (Homo sapiens) (Q86UX6 whole entry): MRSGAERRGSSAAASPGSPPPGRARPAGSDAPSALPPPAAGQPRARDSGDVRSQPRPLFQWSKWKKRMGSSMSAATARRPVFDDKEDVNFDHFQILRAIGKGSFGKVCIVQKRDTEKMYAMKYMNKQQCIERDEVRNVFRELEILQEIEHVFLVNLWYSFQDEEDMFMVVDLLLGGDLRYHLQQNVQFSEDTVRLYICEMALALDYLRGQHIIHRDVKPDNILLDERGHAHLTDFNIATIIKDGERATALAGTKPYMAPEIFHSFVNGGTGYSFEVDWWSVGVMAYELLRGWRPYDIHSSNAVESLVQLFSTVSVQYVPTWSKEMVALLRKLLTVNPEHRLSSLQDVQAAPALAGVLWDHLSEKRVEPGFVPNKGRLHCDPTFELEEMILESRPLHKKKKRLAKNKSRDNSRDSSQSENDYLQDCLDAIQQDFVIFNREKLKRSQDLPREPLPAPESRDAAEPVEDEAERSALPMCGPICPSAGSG
Chain of Phosphatidylinositol 5-phosphate 4-kinase type-2 beta (Homo sapiens) (P78356 whole entry): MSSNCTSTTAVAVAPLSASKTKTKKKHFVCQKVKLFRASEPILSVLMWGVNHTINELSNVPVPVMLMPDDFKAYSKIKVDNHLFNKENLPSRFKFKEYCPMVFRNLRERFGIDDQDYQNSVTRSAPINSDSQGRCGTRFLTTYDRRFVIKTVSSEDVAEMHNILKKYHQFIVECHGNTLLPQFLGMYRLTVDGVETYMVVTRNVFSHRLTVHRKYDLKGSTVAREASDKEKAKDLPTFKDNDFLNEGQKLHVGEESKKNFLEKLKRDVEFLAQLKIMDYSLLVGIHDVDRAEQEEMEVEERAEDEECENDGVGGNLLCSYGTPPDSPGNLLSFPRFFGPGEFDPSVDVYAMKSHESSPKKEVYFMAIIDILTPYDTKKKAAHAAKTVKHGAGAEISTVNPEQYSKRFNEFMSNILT
Chain of Mitogen-activated protein kinase 14 (Homo sapiens) (Q16539 whole entry, canonical isoform): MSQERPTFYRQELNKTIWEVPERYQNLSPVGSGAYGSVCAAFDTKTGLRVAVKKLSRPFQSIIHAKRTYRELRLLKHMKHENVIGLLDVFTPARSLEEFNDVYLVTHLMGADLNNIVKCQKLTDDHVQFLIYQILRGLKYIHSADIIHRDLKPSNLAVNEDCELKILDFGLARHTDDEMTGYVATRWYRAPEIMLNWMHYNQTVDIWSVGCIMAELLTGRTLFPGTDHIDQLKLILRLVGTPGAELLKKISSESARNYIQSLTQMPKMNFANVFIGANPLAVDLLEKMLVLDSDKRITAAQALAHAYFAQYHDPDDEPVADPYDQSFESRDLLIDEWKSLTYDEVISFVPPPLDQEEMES

Compound	residual activity [1]	residual activity [2]	residual activity [3]	residual activity [4]	residual activity [5]	residual activity [6]	residual activity [7]	residual activity [8]	residual activity [9]	residual activity [10]	residual activity [11]	residual activity [12]	residual activity [13]	residual activity [14]	residual activity [15]	residual activity [16]	residual activity [17]	inhibition [18]	residual activity [19]	residual activity [20]	further results
Cn1cncc1[C@@](O)(COc1ccc(C#N)cc1-c1ccc(OC(F)(F)F)cc1)c1ccc(C#N)cc1 [A-108]	100%	95%	100%	96%	100%	87%	100%	100%	100%	100%	84%	100%	98%	97%	80%	100%	72%	1.27%	100%	100%	inhibition (Histamine H1 receptor): 43.5%; inhibition [21]: 0.81%; residual activity [22]: 78%; residual activity [23]: 100%; residual activity [24]: 85%; residual activity [25]: 100%; residual activity [26]: 72%; residual activity [27]: 83%; residual activity [28]: 90%; residual activity [29]: 100%; inhibition [30]: 25.8%; residual activity [31]: 67%; residual activity [32]: 3%; residual activity [33]: 80%; residual activity [34]: 71%; residual activity [35]: 100%; residual activity [36]: 93%; residual activity [37]: 88%; residual activity [38]: 84%
Cn1cncc1[C@](O)(COc1ccc(C#N)cc1-c1ccc(OC(F)(F)F)cc1)c1ccc(C#N)cc1 [ABT-100]	50%	70%	78%	90%	100%	91%	87%	90%	100%	100%	100%	98%	85%	100%	84%	100%	100%	-7.18%	100%	100%	inhibition (Histamine H1 receptor): 88.8%; inhibition [21]: 1.81%; residual activity [22]: 97%; residual activity [23]: 100%; residual activity [24]: 96%; residual activity [25]: 90%; residual activity [26]: 87%; residual activity [27]: 98%; residual activity [28]: 95%; residual activity [29]: 79%; inhibition [30]: -4.07%; residual activity [31]: 84%; residual activity [32]: 100%; residual activity [33]: 90%; residual activity [34]: 90%; residual activity [35]: 100%; residual activity [36]: 80%; residual activity [37]: 89%; residual activity [38]: 64%
